Results: patent US9730940B2, “Purine inhibitors of human phosphatidylinositol 3-kinase delta” (priority 2012, dated 2017)

Biological target: PI3K-alpha (Homo sapiens (Human), UniProt P42336)
Assay: HTRF PI3K biochemical assay, alpha isoform
Conditions: ratio PI3K-alpha IC50 value/PI3K-delta IC50 value

PI3K-alpha, sequence (P42336 whole entry, looked up, canonical isoform): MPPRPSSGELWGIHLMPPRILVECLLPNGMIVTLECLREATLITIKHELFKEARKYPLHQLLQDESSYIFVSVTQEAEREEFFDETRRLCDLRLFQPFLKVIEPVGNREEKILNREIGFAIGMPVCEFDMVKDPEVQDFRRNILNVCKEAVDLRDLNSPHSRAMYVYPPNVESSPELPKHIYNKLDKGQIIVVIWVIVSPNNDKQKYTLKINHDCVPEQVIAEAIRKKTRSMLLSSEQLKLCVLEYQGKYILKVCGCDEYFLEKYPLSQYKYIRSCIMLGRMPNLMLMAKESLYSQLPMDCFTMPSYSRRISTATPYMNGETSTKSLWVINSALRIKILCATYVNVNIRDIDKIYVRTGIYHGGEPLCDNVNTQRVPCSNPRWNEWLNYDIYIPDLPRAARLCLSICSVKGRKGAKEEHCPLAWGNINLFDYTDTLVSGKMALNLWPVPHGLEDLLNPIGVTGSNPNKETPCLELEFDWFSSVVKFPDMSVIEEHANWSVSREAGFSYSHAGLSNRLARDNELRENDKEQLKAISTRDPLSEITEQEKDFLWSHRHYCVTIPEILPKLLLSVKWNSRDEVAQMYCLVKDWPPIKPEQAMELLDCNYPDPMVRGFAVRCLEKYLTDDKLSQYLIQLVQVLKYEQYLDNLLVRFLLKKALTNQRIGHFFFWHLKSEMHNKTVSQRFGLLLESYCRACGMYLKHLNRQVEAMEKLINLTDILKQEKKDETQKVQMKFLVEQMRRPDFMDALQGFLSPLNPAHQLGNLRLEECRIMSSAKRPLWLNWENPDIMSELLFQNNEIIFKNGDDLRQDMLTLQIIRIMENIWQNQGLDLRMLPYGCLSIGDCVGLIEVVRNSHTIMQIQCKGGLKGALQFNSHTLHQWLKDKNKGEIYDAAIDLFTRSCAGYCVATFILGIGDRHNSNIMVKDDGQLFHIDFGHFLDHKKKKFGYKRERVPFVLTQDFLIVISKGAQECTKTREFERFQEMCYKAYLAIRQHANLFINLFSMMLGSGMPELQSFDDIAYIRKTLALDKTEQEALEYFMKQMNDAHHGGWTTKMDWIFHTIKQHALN
PI3K-alpha, sequence (P27986 whole entry partner, looked up, canonical isoform): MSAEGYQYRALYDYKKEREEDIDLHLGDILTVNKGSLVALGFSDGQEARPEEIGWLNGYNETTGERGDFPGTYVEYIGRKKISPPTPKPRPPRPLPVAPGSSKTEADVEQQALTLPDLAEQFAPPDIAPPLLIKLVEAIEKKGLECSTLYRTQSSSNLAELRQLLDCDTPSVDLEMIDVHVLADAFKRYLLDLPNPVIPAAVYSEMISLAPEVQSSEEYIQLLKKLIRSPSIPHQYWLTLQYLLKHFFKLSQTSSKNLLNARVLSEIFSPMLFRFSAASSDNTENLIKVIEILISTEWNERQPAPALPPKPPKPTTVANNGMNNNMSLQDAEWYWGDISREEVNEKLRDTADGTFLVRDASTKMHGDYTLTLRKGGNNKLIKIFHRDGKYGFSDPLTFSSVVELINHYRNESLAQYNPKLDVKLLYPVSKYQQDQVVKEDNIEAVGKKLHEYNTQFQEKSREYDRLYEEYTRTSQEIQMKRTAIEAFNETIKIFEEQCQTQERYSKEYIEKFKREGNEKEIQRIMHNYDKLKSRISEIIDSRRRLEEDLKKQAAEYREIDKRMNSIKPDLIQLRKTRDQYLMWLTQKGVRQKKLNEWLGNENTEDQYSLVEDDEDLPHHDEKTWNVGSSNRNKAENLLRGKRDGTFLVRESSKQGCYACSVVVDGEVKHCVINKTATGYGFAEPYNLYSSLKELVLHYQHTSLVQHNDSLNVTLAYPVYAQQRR

| Structure (SMILES) | Relative Selectivity versus PI3Kalpha |
| --- | --- |
| CCn1c(-c2cnc(C)nc2)nc2c(O[C@H]3CCN(C(=O)OC(C)(C)C)[C@@H]3C)ncnc21 [Compound 1-48, tert-butyl (2R,3S)-3-{[9-ethyl-8-(2-methylpyrimidin-5-yl)-9H-purin-6-yl]oxy}-2-methylpyrrolidine-1-carboxylate] | >10 |
| CCn1c(-c2cnc(C)nc2)nc2c(O[C@H]3CCN(C(=O)OCCN(C)C)C3)ncnc21 [Compound 1-49, 2-(dimethylamino)ethyl (3S)-3-{[9-ethyl-8-(2-methylpyrimidin-5-yl)-9H-purin-6-yl]oxy}pyrrolidine-1-carboxylate] | >10 |
| CCn1c(-c2ccc(OC(F)F)nc2)nc2c(O[C@H]3CCN(C(=O)OC(C)(C)C)C3)ncnc21 [Compound 1-51, tert-butyl (3S)-3-({8-[6-(difluoromethoxy)pyridin-3-yl]-9-ethyl-9H-purin-6-yl}oxy)pyrrolidine-1-carboxylate] | >10 |
| CCn1ncc(-c2nc3c(OC4CCN(C(=O)c5ccccc5)C4)ncnc3n2C)c1C (centres unmarked) [Compound 2-1, 8-(1-ethyl-5-methyl-1H-pyrazol-4-yl)-9-methyl-6-{[1-(phenylcarbonyl)pyrrolidin-3-yl]oxy}-9H-purine] | >10 |
| CCn1ncc(-c2nc3c(OC4CCN(C(=O)C5CCCC5)C4)ncnc3n2C)c1C (centres unmarked) [Compound 2-2, 6-{[1-(cyclopentylcarbonyl)pyrrolidin-3-yl]oxy}-8-(1-ethyl-5-methyl-1H-pyrazol-4-yl)-9-methyl-9H-purine] | >10 |
| CCn1ncc(-c2nc3c(OC4CCN(C(=O)c5ccc6ccccc6c5)C4)ncnc3n2C)c1C (centres unmarked) [Compound 2-3, 8-(1-ethyl-5-methyl-1H-pyrazol-4-yl)-9-methyl-6-{[1-(naphthalen-2-ylcarbonyl)pyrrolidin-3-yl]oxy}-9H-purine] | >10 |
| CCn1ncc(-c2nc3c(OC4CCN(C(=O)C5CCCCC5)C4)ncnc3n2C)c1C (centres unmarked) [Compound 2-4, 6-{[1-(cyclohexylcarbonyl)pyrrolidin-3-yl]oxy}-8-(1-ethyl-5-methyl-1H-pyrazol-4-yl)-9-methyl-9H-purine] | >10 |
| CCn1ncc(-c2nc3c(OC4CCN(C(=O)COC)C4)ncnc3n2C)c1C (centres unmarked) [Compound 2-5, 8-(1-ethyl-5-methyl-1H-pyrazol-4-yl)-6-{[1-(methoxyacetyl)pyrrolidin-3-yl]oxy}-9-methyl-9H-purine] | >10 |
| CCn1ncc(-c2nc3c(OC4CCN(C(=O)CC5CCOCC5)C4)ncnc3n2C)c1C (centres unmarked) [Compound 2-6, 8-(1-ethyl-5-methyl-1H-pyrazol-4-yl)-9-methyl-6-{[1-(tetrahydro-2H-pyran-4-ylacetyl)pyrrolidin-3-yl]oxy}-9H-purine] | >10 |
| CCn1ncc(-c2nc3c(OC4CCN(C(=O)c5cnco5)C4)ncnc3n2C)c1C (centres unmarked) [Compound 2-7, 8-(1-ethyl-5-methyl-1H-pyrazol-4-yl)-9-methyl-6-{[1-(1,3-oxazol-5-ylcarbonyl)pyrrolidin-3-yl]oxy}-9H-purine] | >10 |
| CCn1ncc(-c2nc3c(O[C@H]4CCN(C(=O)C5CCOCC5)C4)ncnc3n2C)c1C [Compound 2-8, (S)-(3-((8-(1-ethyl-5-methyl-1H-pyrazol-4-yl)-9-methyl-9H-purin-6-yl)oxy)pyrrolidin-1-yl)(tetrahydro-2H-pyran-4-yl)methanone] | >10 |
| CCn1ncc(-c2nc3c(O[C@@H]4CCN(C(=O)C5CCOCC5)C4)ncnc3n2C)c1C [Compound 2-9, (R)-(3-((8-(1-ethyl-5-methyl-1H-pyrazol-4-yl)-9-methyl-9H-purin-6-yl)oxy)pyrrolidin-1-yl)(tetrahydro-2H-pyran-4-yl)methanone] | 3 |
| CCn1ncc(-c2nc3c(O[C@H]4CCN(C(=O)C5(C)CCOCC5)C4)ncnc3n2C)c1C [Compound 2-10, 8-(1-ethyl-5-methyl-1H-pyrazol-4-yl)-9-methyl-6-({(3S)-1-[(4-methyltetrahydro-2H-pyran-4-yl)carbonyl]pyrrolidin-3-yl}oxy)-9H-purine] | >10 |
| CCn1ncc(-c2nc3c(OC4CCN(C(=O)C5CCOCC5)CC4)ncnc3n2C)c1C [Compound 2-11, (4-((8-(1-ethyl-5-methyl-1H-pyrazol-4-yl)-9-methyl-9H-purin-6-yl)oxy)piperidin-1-yl)(tetrahydro-2H-pyran-4-yl)methanone] | 2 |
| CCC(=O)N1CCC(Oc2ncnc3c2nc(-c2cnn(CC)c2C)n3C)CC1 [Compound 2-14, 1-(4-((8-(1-ethyl-5-methyl-1H-pyrazol-4-yl)-9-methyl-9H-purin-6-yl)oxy)piperidin-1-yl)propan-1-one] | 1 |
| CCn1ncc(-c2nc3c(O[C@H]4CCN(C(=O)CC#N)C4)ncnc3n2C)c1C [Compound 2-15, 3-[(3S)-3-{[8-(1-ethyl-5-methyl-1H-pyrazol-4-yl)-9-methyl-9H-purin-6-yl]oxy}pyrrolidin-1-yl]-3-oxopropanenitrile] | >10 |
| CCn1ncc(-c2nc3c(O[C@H]4CCN(C(=O)C5CC5)C4)ncnc3n2C)c1C [Compound 2-16, 6-{[(3S)-1-(cyclopropylcarbonyl)pyrrolidin-3-yl]oxy}-8-(1-ethyl-5-methyl-1H-pyrazol-4-yl)-9-methyl-9H-purine] | >10 |
| CCn1ncc(-c2nc3c(O[C@H]4CCN(C(=O)C5CCCO5)C4)ncnc3n2C)c1C (stereo partly drawn) [Compound 2-17, 8-(1-ethyl-5-methyl-1H-pyrazol-4-yl)-9-methyl-6-{[(3S)-1-(tetrahydrofuran-2-ylcarbonyl)pyrrolidin-3-yl]oxy}-9H-purine] | >10 |
| CCn1ncc(-c2nc3c(O[C@H]4CCN(C(=O)c5ccc(N6CCN(C)CC6)cc5)C4)ncnc3n2C)c1C [Compound 2-21, 8-(1-ethyl-5-methyl-1H-pyrazol-4-yl)-9-methyl-6-{[(3S)-1-{[4-(4-methylpiperazin-1-yl)phenyl]carbonyl}pyrrolidin-3-yl]oxy}-9H-purine] | 1 |
| CCn1ncc(-c2nc3c(O[C@H]4CCN(C(=O)c5cccnc5)C4)ncnc3n2C)c1C [Compound 2-22, 8-(1-ethyl-5-methyl-1H-pyrazol-4-yl)-9-methyl-6-{[(3S)-1-(pyridin-3-ylcarbonyl)pyrrolidin-3-yl]oxy}-9H-purine] | >10 |
| CCn1ncc(-c2nc3c(O[C@H]4CCN(C(=O)C5CCOC(C)(C)C5)C4)ncnc3n2C)c1C (stereo partly drawn) [Compound 2-24, 6-({(3S)-1-[(2,2-dimethyltetrahydro-2H-pyran-4-yl)carbonyl]pyrrolidin-3-yl}oxy)-8-(1-ethyl-5-methyl-1H-pyrazol-4-yl)-9-methyl-9H-purine] | >10 |
| CCC(=O)N1CC[C@H](Oc2ncnc3c2nc(-c2cnc(C)nc2)n3CC)C1 [Compound 2-25, 9-ethyl-8-(2-methylpyrimidin-5-yl)-6-{[(3S)-1-propanoylpyrrolidin-3-yl]oxy}-9H-purine] | >10 |
| CCn1c(-c2cnc(C)nc2)nc2c(O[C@H]3CCN(C(=O)C4CCOCC4)C3)ncnc21 [Compound 2-26, 9-ethyl-8-(2-methylpyrimidin-5-yl)-6-{[(3S)-1-(tetrahydro-2H-pyran-4-ylcarbonyl)pyrrolidin-3-yl]oxy}-9H-purine] | >10 |
